Measured values as given in patent EP1422230B1 (priority 2002, dated 2004).
Counter-ions that a name gives are not always drawn. Like-named read-outs stand apart in the source and are kept apart here.

Columns and labels:
rats = test system: rats; parameters: species or system male Sprague-Dawley rats; details: rat, in vivo
[1] = cited from earlier work; for Plasma concentrations: intravenous about 0.3 mg
[2] = parenteral, on a weight basis; cited from earlier work
[3] = intramuscular injection or intravenous injection; cited from earlier work
[4] = intravenous, single dose of about 0.3 mg

Structure (SMILES) | Analgesic duration (rats; HCl) [h] | duration of analgesic action (rats; HCl) [h] | Cmax ([1]; 0.4 mg sublingual dose) [ng/mL] | Tmax ([1]; 0.4 mg sublingual dose) [h] | systemic availability ([1]; 0.4 mg sublingual dose) [%] | Total plasma clearance ([1]; conscious postoperative patients) | mean peak plasma buprenorphine concentrations ([1]; intramuscular second 0.3-mg dose 3 hours after the initial intravenous dose) | plasma buprenorphine concentrations ([1]; intramuscular second 0.3-mg dose, after about 3 hours) | Plasma concentrations ([1]; after about 5 minutes) | Plasma concentrations ([1]; after about 3 hours) | mean peak plasma drug concentrations [1, 4] | time of mean peak plasma drug concentrations [1, 4] [min] | duration of analgesic action (rats) [h] | duration of action (rats; sc) [h] | analgesic potency, times as that of meperidine [2] | analgesic potency, times as that of pentazocine [2] | duration of action [3] [h]
CO[C@]12CC[C@@]3(C[C@@H]1[C@](C)(O)C(C)(C)C)[C@H]1Cc4ccc(O)c5c4[C@@]3(CCN1CC1CC1)[C@H]2O5 [Buprenorphine HCl] | 5 | 3 to 5 |  |  |  |  |  |  |  |  |  |  |  |  |  |  | 
CO[C@]12CC[C@@]3(C[C@@H]1[C@](C)(O)C(C)(C)C)[C@H]1Cc4ccc(O)c5c4[C@@]3(CCN1CC1CC1)[C@H]2O5 [Buprenorphine base, (5α, 7α (S)-17-cyclopropyl-methyl)-α -(1,1-dimethylethyl)-4,5-epoxy-18,19-dihydro-3-hydroxy-6-methoxy-α -methyl-6,14-ethenomorphinan-7-methanol] |  |  | 0.5 ± 0.06 | 3.5 ± 0.667 | 57.7±6 | approximately 0.28 L/minute | about 3.6 ng/mL | about 0.4 ng/mL | about 9 ng/mL | about 0 .4 ng/mL | about 18 ng/mL | ≤ 2 | 48 to 50 | 48 to 50 | about 600 times | about 200 times | 6 to 8
